Laboratory results published in ChEMBL document CHEMBL4028808, “Design and synthesis of selective CDK8/19 dual inhibitors: Discovery of 4,5-dihydrothieno[3',4':3,4]benzo[1,2-d]isothiazole derivatives” (Bioorg Med Chem, 2017).
Converted amounts (≈) assume the structure as drawn.

Experiments:
[1] = biological target: Cyclin-dependent kinase 8 (Homo sapiens, UniProt P49336); assay: Inhibition of CDK8 in human SW480 cells assessed as decrease in STAT1 phosphorylation at Ser727 after 2 hrs by Western blot method
Sequence of Cyclin-dependent kinase 8 (P49336 whole entry): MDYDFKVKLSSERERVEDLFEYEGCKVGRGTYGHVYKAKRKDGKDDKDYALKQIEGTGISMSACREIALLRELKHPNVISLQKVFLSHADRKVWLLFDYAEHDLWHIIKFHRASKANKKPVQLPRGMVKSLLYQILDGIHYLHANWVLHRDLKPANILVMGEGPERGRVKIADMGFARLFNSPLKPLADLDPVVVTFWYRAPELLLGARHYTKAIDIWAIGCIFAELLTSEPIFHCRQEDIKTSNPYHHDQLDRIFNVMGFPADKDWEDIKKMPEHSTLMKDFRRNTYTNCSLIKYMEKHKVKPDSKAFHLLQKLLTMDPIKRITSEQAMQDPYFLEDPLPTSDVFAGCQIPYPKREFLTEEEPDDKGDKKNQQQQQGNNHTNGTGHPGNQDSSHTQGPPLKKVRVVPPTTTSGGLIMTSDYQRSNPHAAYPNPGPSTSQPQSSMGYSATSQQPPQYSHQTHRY

CDK8/Cyclin C [2] = biological target: T1, CDK8/Cyclin C (Homo sapiens, UniProt P49336); assay: Inhibition of kinase tracer-236 binding to GST-tagged CDK8/CyclinC (unknown origin) after 60 mins by TR-FRET assay; assay type: protein-complex assay
T1 sequence (P49336 whole entry): as above
T1 sequence (P24863 whole entry, further chain): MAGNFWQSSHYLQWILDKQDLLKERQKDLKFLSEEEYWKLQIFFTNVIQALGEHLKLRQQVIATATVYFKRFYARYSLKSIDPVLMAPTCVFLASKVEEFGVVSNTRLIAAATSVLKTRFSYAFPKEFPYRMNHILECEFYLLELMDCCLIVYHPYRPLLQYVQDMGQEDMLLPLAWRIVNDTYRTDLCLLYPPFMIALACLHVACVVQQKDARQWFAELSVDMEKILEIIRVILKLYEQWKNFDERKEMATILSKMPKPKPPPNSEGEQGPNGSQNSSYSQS

[3] = biological target: Cyclin-C/Cyclin-dependent kinase 19 (Homo sapiens, UniProt Q9BWU1); assay: Inhibition of kinase tracer-236 binding to GST-tagged CDK19/CyclinC (unknown origin) after 60 mins by TR-FRET assay; assay type: protein-complex assay
Sequence of Cyclin-C/Cyclin-dependent kinase 19 (Q9BWU1 whole entry): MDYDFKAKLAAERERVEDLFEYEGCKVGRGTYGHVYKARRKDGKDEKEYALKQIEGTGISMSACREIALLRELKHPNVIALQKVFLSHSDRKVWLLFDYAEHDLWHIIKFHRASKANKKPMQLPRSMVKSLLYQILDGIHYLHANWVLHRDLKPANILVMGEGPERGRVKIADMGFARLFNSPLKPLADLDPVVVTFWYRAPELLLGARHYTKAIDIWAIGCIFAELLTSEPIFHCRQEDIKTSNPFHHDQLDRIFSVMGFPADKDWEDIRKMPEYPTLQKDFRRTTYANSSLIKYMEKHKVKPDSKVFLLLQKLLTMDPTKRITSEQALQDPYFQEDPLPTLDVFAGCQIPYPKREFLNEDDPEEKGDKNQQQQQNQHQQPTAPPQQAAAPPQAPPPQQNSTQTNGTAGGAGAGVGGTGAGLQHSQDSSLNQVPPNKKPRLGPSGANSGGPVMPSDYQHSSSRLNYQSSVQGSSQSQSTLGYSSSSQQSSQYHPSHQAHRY
Sequence of Cyclin-C/Cyclin-dependent kinase 19 (P24863 whole entry, further chain): as the sequence (P24863 whole entry, further chain) above

[4] = Intrinsic clearance in human liver microsomes at 1 umol/l after 15 to 30 mins in presence of NADPH by LC-MS/MS analysis; assay type: ADME, microsome; details: read-out: CLH
[5] = Aqueous solubility of the compound in DMSO at pH 6.8 by HPLC method; assay type: physicochemical
CDK8/Cyclin C [6] = biological target: T1, CDK8/Cyclin C; assay: Inhibition of full length recombinant human His-tagged CDK8/Cyclin C expressed in baculovirus expression system using Ulight-GS peptide as substrate measured after 30 mins by TR-FRET based LANCE assay

Structure (SMILES)	EC50 [1] [nM]	IC50 (CDK8/Cyclin C [2]) [nM]	IC50 [3] [nM]	microsomal CLint at 1 µM [4] [µL/min/mg]	solubility [5] [µg/mL]	IC50 (CDK8/Cyclin C [6]) [nM]
C[S+]([O-])c1sc(C(N)=O)c2c1-c1sncc1CC2 (stereo not given)	70	88	150			
NC(=O)c1sc(Oc2ccccn2)c2c1CCc1cnsc1-2	66	11	25	101		
CSc1sc(C(=O)Nc2ccccc2)c2c1-c1sncc1CC2	> 10000	540	700			
CS(=O)(=O)c1sc(C(N)=O)c2c1-c1sncc1CC2	220	63	110			
CSc1sc(C(N)=O)c2c1-c1[nH]ncc1CC2	1300	1700	3100			
NC(=O)c1[nH]cc(-c2ccncc2)c1Cl						7
CSc1sc(C(N)=O)c2c1-c1snnc1CC2	550	60	130			
CSc1sc(C(=O)Nc2ccn(C)n2)c2c1-c1sncc1CC2	1400	22	65			
CSc1sc(C#N)c2c1-c1sncc1CC2	490	23	46			
CSc1sc(C(=O)Nc2ccon2)c2c1-c1sncc1CC2	890	12	15			
OC[C@H](Nc1cncc(-c2ccc(O)c(Cl)c2)n1)c1ccccc1						0.2
CSc1sc(C(=O)Nc2ccccn2)c2c1-c1sncc1CC2	2800	180	400			
CNC(=O)c1sc(SC)c2c1CCc1cnsc1-2	140	9.3	22			
CSc1sc(C(=O)Nc2ccsn2)c2c1-c1sncc1CC2	620	66	93			
CSc1sc(C(=O)N(C)C)c2c1-c1sncc1CC2	1700	68	120			
CSc1sc(C(N)=O)c2c1-c1oncc1CC2	200	45	71			
OC[C@H](Nc1cncc(-c2ccc3[nH]ncc3c2)c1)c1ccccc1						0.4
CSc1sc(C(=O)O)c2c1-c1sncc1CC2	> 10000	9.5	12			
CSc1sc(C(N)=O)c2c1-c1nn(C)cc1CC2	> 10000	> 10000				

The remaining compounds from weak to strong by EC50 [1], led by results:

EC50 [1] [nM]	IC50 (CDK8/Cyclin C [2]) [nM]	IC50 [3] [nM]	microsomal CLint at 1 µM [4] [µL/min/mg]	solubility [5] [µg/mL]	IC50 (CDK8/Cyclin C [6]) [nM]	Structure (SMILES)
28	5.1	9.2	188			Cc1cncc(Oc2sc(C(N)=O)c3c2-c2sncc2CC3)c1
25	18	19				CSc1sc(C(N)=O)c2c1-c1c(cnn1C)CC2
21	23	21	36	65 (≈ 162 µM)		CN(C)C(=O)c1ccc(Oc2sc(C(N)=O)c3c2-c2sncc2CC3)cn1
16	4.7	6.6	65			Cc1ccncc1Oc1sc(C(N)=O)c2c1-c1sncc1CC2
9.1	2.3	2.8				COc1sc(C(N)=O)c2c1-c1sncc1CC2
8.3	4.4	9.3				Cc1c(Oc2sc(C(N)=O)c3c2-c2sncc2CC3)ccc[n+]1[O-]
7.4	2.4	2.4	21	56 (≈ 126 µM)		CC(C)(O)CNC(=O)c1ccc(Oc2sc(C(N)=O)c3c2-c2sncc2CC3)cn1
3	0.99	1.3	75	23 (≈ 67 µM)		Cc1ccc(Oc2sc(C(N)=O)c3c2-c2sncc2CC3)cn1
3	1.5	2.7	55			NC(=O)c1sc(Oc2cccnc2)c2c1CCc1cnsc1-2
2.6	1.9	1	23	11 (≈ 28.5 µM)		CNC(=O)c1ccc(Oc2sc(C(N)=O)c3c2-c2sncc2CC3)cn1
2.3	0.6	1.1	30	4.5 (≈ 13.1 µM)		NC(=O)c1sc(Oc2ccc(N)nc2)c2c1CCc1cnsc1-2
2	0.47	0.77	86			Cc1ncccc1Oc1sc(C(N)=O)c2c1-c1sncc1CC2
1.5	1.1	1.9	73	15 (≈ 33.7 µM)		CCOCCNC(=O)c1ccc(Oc2sc(C(N)=O)c3c2-c2sncc2CC3)cn1
1.4	0.93	0.97	19	4.1 (≈ 11 µM)		NC(=O)c1ccc(Oc2sc(C(N)=O)c3c2-c2sncc2CC3)cn1
0.77	0.34	0.55	193			NC(=O)c1sc(Oc2ccccc2)c2c1CCc1cnsc1-2
0.58	0.59	0.36	127	4 (≈ 11.2 µM)		CNc1ccc(Oc2sc(C(N)=O)c3c2-c2sncc2CC3)cn1
0.4	0.57	0.57	61	0.72 (≈ 1.86 µM)		CC(=O)Nc1ccc(Oc2sc(C(N)=O)c3c2-c2sncc2CC3)cn1
0.35	1.4	1.3	71	6.7 (≈ 15.1 µM)		COCCNC(=O)c1ccc(Oc2sc(C(N)=O)c3c2-c2sncc2CC3)c(C)n1
